Results taken from PubChem BioAssay AID248 (DTP/NCI, 2004).
Toxic doses and inconclusive results are not listed. No stated cut-off is given here; in the data, active means T/C of 150% or more; inactive means T/C below 125%.

Test system: L1210 leukemia ip in BDF1 mice, survival T/C
Test: NCI In Vivo Anticancer Drug Screen. Data for tumor model L1210 Leukemia (intraperitoneal) in B6D2F1 (BDF1) mice
Details: endpoint: mean survival time, higher = longer survival
How it was run: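 Antitumor effect is assessed in tumor-bearing animals. Survival in the compound arm is compared with a vehicle-dosed control arm and expressed as their quotient.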

[1] = dose: 12.5 mg/kg/injection, schedule: Q01DX009 (ip), vehicle: saline with Tween-80
[2] = dose: 25.0 mg/kg/injection, schedule: Q01DX009 (ip), vehicle: saline with Tween-80
[3] = dose: 50.0 mg/kg/injection, schedule: Q01DX001 (ip), vehicle: carboxymethylcellulose (CMC)
[4] = dose: 100.0 mg/kg/injection, schedule: Q01DX001 (ip), vehicle: carboxymethylcellulose (CMC)
[5] = dose: 200.0 mg/kg/injection, schedule: Q01DX001 (ip), vehicle: carboxymethylcellulose (CMC)
[6] = dose: 400.0 mg/kg/injection, schedule: Q01DX001 (ip), vehicle: carboxymethylcellulose (CMC)
[7] = dose: 50.0 mg/kg/injection, schedule: Q01DX009 (ip), vehicle: saline with Tween-80
[8] = dose: 200.0 mg/kg/injection, schedule: Q01DX009 (ip), vehicle: saline with Tween-80
[9] = dose: 100.0 mg/kg/injection, schedule: Q01DX009 (ip), vehicle: saline with Tween-80
[10] = dose: 100.0 mg/kg/injection, schedule: Q04DX003 (ip), vehicle: saline
[11] = dose: 200.0 mg/kg/injection, schedule: Q04DX003 (ip), vehicle: saline
[12] = dose: 100.0 mg/kg/injection, schedule: Q04DX003 (ip), vehicle: saline with Tween-80
[13] = dose: 200.0 mg/kg/injection, schedule: Q04DX003 (ip), vehicle: saline with Tween-80
[14] = dose: 400.0 mg/kg/injection, schedule: Q01DX009 (ip), vehicle: saline with Tween-80
[15] = dose: 400.0 mg/kg/injection, schedule: Q04DX003 (ip), vehicle: saline with Tween-80
[16] = dose: 50.0 mg/kg/injection, schedule: Q01DX009 (ip), vehicle: saline

Measured: T/C

CC1(C)N=C(N)N=C(N)N1c1ccc(CCCCc2cccc(S(=O)(=O)F)c2)c(Cl)c1
inactive: dose: 6.25 mg/kg/injection, schedule: Q01DX009 (ip), vehicle: saline with Tween-80 106 % of control | [1] 104 % of control | [2] 113 % of control

Cc1cccc(OCc2ccccc2)n1
inactive: [3] 103 % of control | [4] 105 % of control | [5] 100 % of control | [6] 100 % of control

CCOC(=O)c1cc(Cl)cc(Cl)c1N=NN(C)C
inactive: [7] 102 % of control | [8] 102 % of control

CCSC(SCC)C(SCC)C(OC(=O)c1ccccc1)C(OC(=O)c1ccccc1)C(COC(=O)c1ccccc1)OC(=O)c1ccccc1 (centres undefined)
inactive: [4] 114 % of control | [5] 112 % of control | [6] 93 % of control

[CH3][Sn]([CH3])([CH3])[O][N+](=O)[O-]
inactive: dose: 0.18 mg/kg/injection, schedule: Q01DX009 (ip), vehicle: saline 94 % of control | dose: 0.37 mg/kg/injection, schedule: Q01DX009 (ip), vehicle: saline 100 % of control | dose: 0.75 mg/kg/injection, schedule: Q01DX009 (ip), vehicle: saline 103 % of control | dose: 1.5 mg/kg/injection, schedule: Q04DX003 (ip), vehicle: saline 108 % of control | dose: 3.0 mg/kg/injection, schedule: Q04DX003 (ip), vehicle: saline 103 % of control

CCCC1(C(=O)OCC)CCCC1=O (centres undefined)
inactive: [4] 95 % of control | [5] 90 % of control | [6] 92 % of control

COC(=O)/C=C(\C(=O)OC)N1CCCCC1
inactive: dose: 18.75 mg/kg/injection, schedule: Q01DX009 (ip), vehicle: saline with Tween-80 98 % of control | dose: 37.5 mg/kg/injection, schedule: Q01DX009 (ip), vehicle: saline with Tween-80 101 % of control | dose: 75.0 mg/kg/injection, schedule: Q01DX009 (ip), vehicle: saline with Tween-80 91 % of control | [9] 107 % of control

Cc1nnc(S(=O)(=O)c2ccc(N=Nc3c(N)nc(N)nc3N)cc2)s1
inactive: [4] 92 % of control | [5] 97 % of control | [6] 94 % of control

CC(C(=O)O)N(Cc1ccccc1)S(C)(=O)=O (centres undefined)
inactive: dose: 100.0 mg/kg/injection, schedule: Q01DX009 (ip), vehicle: other 97 % of control | dose: 100.0 mg/kg/injection, schedule: Q04DX003 (ip), vehicle: other 94 % of control | dose: 200.0 mg/kg/injection, schedule: Q01DX009 (ip), vehicle: other 106 % of control | dose: 200.0 mg/kg/injection, schedule: Q04DX003 (ip), vehicle: other 102 % of control | dose: 400.0 mg/kg/injection, schedule: Q01DX009 (ip), vehicle: other 108 % of control | dose: 400.0 mg/kg/injection, schedule: Q04DX003 (ip), vehicle: other 101 % of control

Cc1cc(C)n(/N=C/c2ccc(N(C)C)cc2)c(=O)c1C#N
inactive: [10] 95 % of control | [11] 95 % of control | dose: 400.0 mg/kg/injection, schedule: Q04DX003 (ip), vehicle: saline 95 % of control

Nc1cnccc1NCCc1cccc(O)c1
inactive: [1] 97 % of control | [2] 103 % of control | [7] 89 % of control | [8] 88 % of control

Cc1cccc(NC(=O)CSc2cc(Cl)c(Cl)cc2Cl)c1
inactive: dose: 100.0 mg/kg/injection, schedule: Q01DX001 (ip), vehicle: saline with Tween-80 93 % of control | dose: 200.0 mg/kg/injection, schedule: Q01DX001 (ip), vehicle: saline with Tween-80 90 % of control | dose: 400.0 mg/kg/injection, schedule: Q01DX001 (ip), vehicle: saline with Tween-80 87 % of control

O=C1CCCN(Cc2ccccc2)C(=O)N1
inactive: [9] 97 % of control | [12] 103 % of control | [8] 97 % of control | [13] 103 % of control | [14] 97 % of control | [15] 103 % of control

CC(=O)c1ccc(O)c(CN(C2CCCCC2)C2CCCCC2)c1O
inactive: dose: 100.0 mg/kg/injection, schedule: Q01DX001 (ip), vehicle: saline 100 % of control | dose: 200.0 mg/kg/injection, schedule: Q01DX001 (ip), vehicle: saline 93 % of control | dose: 400.0 mg/kg/injection, schedule: Q01DX001 (ip), vehicle: saline 93 % of control

O=C1NCCc2c1[nH]c1ccccc21
inactive: [16] 90 % of control | dose: 100.0 mg/kg/injection, schedule: Q01DX009 (ip), vehicle: saline 91 % of control | [10] 101 % of control | dose: 200.0 mg/kg/injection, schedule: Q01DX009 (ip), vehicle: saline 86 % of control | [11] 93 % of control

C[n+]1ccc(/C=C\c2ccc3c(c2)OCO3)cc1
inactive: dose: 75.0 mg/kg/injection, schedule: Q01DX001 (ip), vehicle: saline 100 % of control

CN(C)CCc1ccccc1
inactive: dose: 25.6 mg/kg/injection, schedule: Q04DX002 (ip), vehicle: saline with Tween-80 100 % of control | dose: 64.0 mg/kg/injection, schedule: Q04DX002 (ip), vehicle: saline with Tween-80 103 % of control | [9] 100 % of control | [12] 102 % of control | dose: 160.0 mg/kg/injection, schedule: Q04DX002 (ip), vehicle: saline with Tween-80 103 % of control | [8] 95 % of control | [13] 102 % of control | dose: 400.0 mg/kg/injection, schedule: Q04DX002 (ip), vehicle: saline with Tween-80 100 % of control | [15] 100 % of control

C[n+]1ccccc1/C=C/c1ccnc2c(O)cccc12
inactive: dose: 75.0 mg/kg/injection, schedule: Q01DX001 (ip), vehicle: carboxymethylcellulose (CMC) 107 % of control | dose: 150.0 mg/kg/injection, schedule: Q01DX001 (ip), vehicle: carboxymethylcellulose (CMC) 102 % of control

O=C(O)/C(=C\c1ccccc1[N+](=O)[O-])c1ccccc1Cl
inactive: [9] 106 % of control | [8] 98 % of control | [14] 95 % of control

COC1=C(Nc2ccccc2C)C(=O)C(OC)=C(Nc2ccccc2C)C1=O
inactive: [3] 87 % of control | [4] 96 % of control | [5] 98 % of control | [6] 96 % of control

Cc1cc(N2CCC(N3CCCC3)CC2)nc(/N=C(\N)Nc2ccc(Cl)c(Cl)c2)n1
inactive: dose: 12.0 mg/kg/injection, schedule: Q01DX009 (ip), vehicle: saline 97 % of control | dose: 25.0 mg/kg/injection, schedule: Q01DX009 (ip), vehicle: saline 106 % of control | [16] 98 % of control

[N-]=[N+]=[N-]
inactive: dose: 10.0 mg/kg/injection, schedule: Q01DX001 (ip), vehicle: saline 100 % of control | dose: 20.0 mg/kg/injection, schedule: Q01DX001 (ip), vehicle: saline 100 % of control

COC1CCC=CO1 (centres undefined)
inactive: dose: 13.3 mg/kg/injection, schedule: Q01DX Z (ip), vehicle: saline 93 % of control | dose: 20.0 mg/kg/injection, schedule: Q01DX Z (ip), vehicle: saline 105 % of control | dose: 30.0 mg/kg/injection, schedule: Q01DX Z (ip), vehicle: saline 109 % of control
